Source: patent US20240252488A1 (KOREA RESEARCH INSTITUTE OF CHEMICAL TECHNOLOGY, priority 2020, published 2024)

Columns and labels:
[1] = target: T1, MLKL (Homo sapiens, UniProt Q8NB16); assay: Measurement of binding affinity with MLKL receptor (competitive binding assay, Kd); design: made in house; host or cells: HEK 293 cell line (T7 phage in E. coli BL21-derived host is also described)
T1 sequence (Q8NB16 1-471): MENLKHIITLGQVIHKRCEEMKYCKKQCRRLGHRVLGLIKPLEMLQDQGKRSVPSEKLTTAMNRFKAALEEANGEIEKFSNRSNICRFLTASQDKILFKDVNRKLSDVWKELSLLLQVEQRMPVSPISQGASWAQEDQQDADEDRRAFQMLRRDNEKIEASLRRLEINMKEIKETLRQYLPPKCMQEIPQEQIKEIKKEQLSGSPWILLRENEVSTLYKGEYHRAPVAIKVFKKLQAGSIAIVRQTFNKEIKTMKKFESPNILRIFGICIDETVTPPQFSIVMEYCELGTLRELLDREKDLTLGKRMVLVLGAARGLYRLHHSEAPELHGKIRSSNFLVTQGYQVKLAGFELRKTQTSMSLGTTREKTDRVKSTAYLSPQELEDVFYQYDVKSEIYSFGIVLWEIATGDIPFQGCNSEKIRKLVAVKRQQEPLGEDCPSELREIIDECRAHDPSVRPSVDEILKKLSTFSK
Summary of the method: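 HEK 293-expressed, DNA-tagged MLKL; ligand beads blocked with biotin and SeaBlock/1% BSA/0.05% Tween 20/1 mM DTT buffer. Cpd from 111× DMSO stock, 0.9% DMSO final. Eluted kinase by qPCR → Kd.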

[2] = system: FADD−/− Jurkat cells; assay: Necroptosis inhibition assay, TNF-α-induced necroptosis (CellTiter-Glo 2.0); assay type: cell-based, human; conditions: TNF-α 15 ng/mL; for Necroptosis inhibition assay (Rescue %) 1 μM: compound 1 μM; for Necroptosis inhibition assay (Rescue %) 10 μM: compound 10 μM
Summary of the method: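 FADD−/− Jurkat cells preincubated 30 min at room temperature with compound at 0.1, 1 and 10 μM final, then stimulated with TNF-α (15 ng/mL final) for 20–24 h at 37 °C, 5% CO2. Viability read as ATP luminescence; cytotoxicity and necroptosis inhibition rate calculated from luminescence values.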

[3] = target: T1, MLKL; assay: MLKL degradation assay in HepG2 cell line (western blot); assay type: cell-based; design: endogenous in cells; host or cells: HepG2 or HaCaT; conditions: cell line not given; for Degradation assay (Degradation %) 1 μM: compound 1 μM; for Degradation assay (Degradation %) 10 μM: compound 10 μM
Summary of the method: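 HepG2 cells were treated 20-24 h at 37 °C with compound at 1 or 10 μM final. RIPA lysates were normalized by BCA, and 10-15 μg protein per lane was resolved by SDS-PAGE. MLKL was detected by western blot with chemiluminescence.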

Structure (SMILES) | Kd [1] [nM] | Degradation assay (Degradation %) 1 μM [3] [%] | Degradation assay (Degradation %) 10 μM [3] [%] | Necroptosis inhibition assay (Rescue %) 1 μM [2] [%] | Necroptosis inhibition assay (Rescue %) 10 μM [2] [%]
Nc1ncc(-c2cnn(C3CCN(C(=O)C4CCN(c5ccc6c(c5)C(=O)N(C5CCC(=O)NC5=O)C6=O)CC4)CC3)c2)nc1C(=O)OC(C(=O)Nc1ccc(F)cc1)c1ccccc1 (stereo not shown) [TDH-280, 2-((4-fluorophenyl)amino)-2-oxo-1-phenylethyl 3-amino-6-(1-(1-(1-(2-(2,6-dioxopiperidin-3-yl)-1,3-dioxoisoindolin-5-yl)piperidine-4-carbonyl)piperidin-4-yl)-1H-pyrazol-4-yl)pyrazine-2-carboxylate] | 9.3 | 53.99 | 39.22 | 33.16 | 19.54
Nc1ncc(-c2cnn([C@H]3CCN(CC4CCN(C(=O)CNc5cccc6c5C(=O)N(C5CCC(=O)NC5=O)C6=O)CC4)C3)c2)nc1C(=O)OC(C(=O)Nc1ccc(F)cc1)c1ccccc1 (stereo partly drawn) [TDH-281, 2-((4-fluorophenyl)amino)-2-oxo-1-phenylethyl 3-amino-6-(1-((3S)-1-((1-((2-(2,6-dioxopiperidin-3-yl)-1,3-dioxoisoindolin-4-yl)glycyl)piperidin-4-yl)methyl)pyrrolidin-3-yl)-1H-pyrazol-4-yl)pyrazine-2-carboxylate] | 5.7 | 45.01 | 10.1 | 29.65 | 26.95
Nc1ncc(-c2cnn([C@H]3CCN(CC4CCN(C(=O)CNc5ccc6c(c5)C(=O)N(C5CCC(=O)NC5=O)C6=O)CC4)C3)c2)nc1C(=O)OC(C(=O)Nc1ccc(F)cc1)c1ccccc1 (stereo partly drawn) [TDH-282, 2-((4-fluorophenyl)amino)-2-oxo-1-phenylethyl 3-amino-6-(1-((3S)-1-((1-((2-(2,6-dioxopiperidin-3-yl)-1,3-dioxoisoindolin-5-yl)glycyl)piperidin-4-yl)methyl)pyrrolidin-3-yl)-1H-pyrazol-4-yl)pyrazine-2-carboxylate] | 5.6 | 60.51 | 58.02 | 77.92 | 67.84
Nc1ncc(-c2cnn([C@H]3CCN(CC4CCN(C(=O)COc5cccc6c5C(=O)N(C5CCC(=O)NC5=O)C6=O)CC4)C3)c2)nc1C(=O)OC(C(=O)Nc1ccc(F)cc1)c1ccccc1 (stereo partly drawn) [TDH-283, 2-((4-fluorophenyl)amino)-2-oxo-1-phenylethyl 3-amino-6-(1-((3S)-1-((1-(2-((2-(2,6-dioxopiperidin-3-yl)-1,3-dioxoisoindolin-4-yl)oxy)acetyl)piperidin-4-yl)methyl)pyrrolidin-3-yl)-1H-pyrazol-4-yl)pyrazine-2-carboxylate] | 2.1 | 4.29 | 31.1 | 44.29 | 54.92
Nc1ncc(-c2cnn([C@H]3CCN(CC4CCN(C(=O)COc5ccc6c(c5)C(=O)N(C5CCC(=O)NC5=O)C6=O)CC4)C3)c2)nc1C(=O)OC(C(=O)Nc1ccc(F)cc1)c1ccccc1 (stereo partly drawn) [TDH-284, 2-((4-fluorophenyl)amino)-2-oxo-1-phenylethyl 3-amino-6-(1-((3S)-1-((1-(2-((2-(2,6-dioxopiperidin-3-yl)-1,3-dioxoisoindolin-5-yl)oxy)acetyl)piperidin-4-yl)methyl)pyrrolidin-3-yl)-1H-pyrazol-4-yl)pyrazine-2-carboxylate] | 2.6 | 42.05 | 58.09 | 75.95 | 52.77
Nc1ncc(-c2cnn([C@@H]3CCN(CC4CCN(C(=O)CNc5cccc6c5C(=O)N(C5CCC(=O)NC5=O)C6=O)CC4)C3)c2)nc1C(=O)OC(C(=O)Nc1ccc(F)cc1)c1ccccc1 (stereo partly drawn) [TDH-285, 2-((4-fluorophenyl)amino)-2-oxo-1-phenylethyl 3-amino-6-(1-((3R)-1-((1-((2-(2,6-dioxopiperidin-3-yl)-1,3-dioxoisoindolin-4-yl)glycyl)piperidin-4-yl)methyl)pyrrolidin-3-yl)-1H-pyrazol-4-yl)pyrazine-2-carboxylate] | 13 | 56.55 | 50.66 | 36.72 | 40.43
Nc1ncc(-c2cnn([C@@H]3CCN(CC4CCN(C(=O)CNc5ccc6c(c5)C(=O)N(C5CCC(=O)NC5=O)C6=O)CC4)C3)c2)nc1C(=O)OC(C(=O)Nc1ccc(F)cc1)c1ccccc1 (stereo partly drawn) [TDH-286, 2-((4-fluorophenyl)amino)-2-oxo-1-phenylethyl 3-amino-6-(1-((3R)-1-((1-((2-(2,6-dioxopiperidin-3-yl)-1,3-dioxoisoindolin-5-yl)glycyl)piperidin-4-yl)methyl)pyrrolidin-3-yl)-1H-pyrazol-4-yl)pyrazine-2-carboxylate] | 12 | 71.83 | 71.94 | 88.45 | 79.75

Further lines, with some results ahead:

Kd [1] [nM] | Degradation assay (Degradation %) 1 μM [3] [%] | Degradation assay (Degradation %) 10 μM [3] [%] | Structure (SMILES) | Necroptosis inhibition assay (Rescue %) 1 μM [2] [%] | Necroptosis inhibition assay (Rescue %) 10 μM [2] [%]
3.7 | 75.04 | 65.94 | Nc1ncc(-c2cnn([C@@H]3CCN(CC4CCN(C(=O)COc5cccc6c5C(=O)N(C5CCC(=O)NC5=O)C6=O)CC4)C3)c2)nc1C(=O)OC(C(=O)Nc1ccc(F)cc1)c1ccccc1 (stereo partly drawn) [TDH-287, 2-((4-fluorophenyl)amino)-2-oxo-1-phenylethyl 3-amino-6-(1-((3R)-1-((1-(2-((2-(2,6-dioxopiperidin-3-yl)-1,3-dioxoisoindolin-4-yl)oxy)acetyl)piperidin-4-yl)methyl)pyrrolidin-3-yl)-1H-pyrazol-4-yl)pyrazine-2-carboxylate] | 71.05 | 72.7
5.2 | 75.31 | 89.16 | Nc1ncc(-c2cnn([C@@H]3CCN(CC4CCN(C(=O)COc5ccc6c(c5)C(=O)N(C5CCC(=O)NC5=O)C6=O)CC4)C3)c2)nc1C(=O)OC(C(=O)Nc1ccc(F)cc1)c1ccccc1 (stereo partly drawn) [TDH-288, 2-((4-fluorophenyl)amino)-2-oxo-1-phenylethyl 3-amino-6-(1-((3R)-1-((1-(2-((2-(2,6-dioxopiperidin-3-yl)-1,3-dioxoisoindolin-5-yl)oxy)acetyl)piperidin-4-yl)methyl)pyrrolidin-3-yl)-1H-pyrazol-4-yl)pyrazine-2-carboxylate] | 70.93 | 66.54
2.2 | 66.33 | 43.03 | Nc1ncc(-c2cnn(C3CCN(CCC4CCN(C(=O)C5CCN(c6cccc7nnn(C8CCC(=O)NC8=O)c(=O)c67)CC5)CC4)CC3)c2)nc1C(=O)OC(C(=O)Nc1ccc(F)cc1)c1ccccc1 (stereo not shown) [TDH-289, 2-((4-fluorophenyl)amino)-2-oxo-1-phenylethyl 3-amino-6-(1-(1-(2-(1-(1-(3-(2,6-dioxopiperidin-3-yl)-4-oxo-3,4-dihydrobenzo[d][1,2,3]triazin-5-yl)piperidine-4-carbonyl)piperidin-4-yl)ethyl)piperidin-4-yl)-1H-pyrazol-4-yl)pyrazine-2-carboxylate] | 67.46 | 61.24
5.3 | 56.44 | 44.97 | Nc1ncc(-c2cnn(C3CCN(CCC4CCN(C(=O)C5CCN(c6ccc7nnn(C8CCC(=O)NC8=O)c(=O)c7c6)CC5)CC4)CC3)c2)nc1C(=O)OC(C(=O)Nc1ccc(F)cc1)c1ccccc1 (stereo not shown) [TDH-290, 2-((4-fluorophenyl)amino)-2-oxo-1-phenylethyl 3-amino-6-(1-(1-(2-(1-(1-(3-(2,6-dioxopiperidin-3-yl)-4-oxo-3,4-dihydrobenzo[d][1,2,3]triazin-6-yl)piperidine-4-carbonyl)piperidin-4-yl)ethyl)piperidin-4-yl)-1H-pyrazol-4-yl)pyrazine-2-carboxylate] | 90.57 | 84.93
